Data as given in patent US10219513B2, “Safening 4-amino-3-chloro-6-(4-chloro-2-fluoro-3-methoxyphenyl)-5-fluoropyridine-2-carboxylic acid compositions in Brassica species and methods of use thereof” (Dow AgroSciences LLC, priority 2016, dated 2019).

Assays:
[1] = tested on: Brassica alboglabra (kale/Chinese kale, BRSAG); assay: Greenhouse postemergence application, visual injury after 20-22 d, BRSAG
Description: (§1) Seeds of the desired test plant species were planted in Sun Gro MetroMix® 306 planting mixture, which typically has a pH of 6.0 to 6.8 and an organic matter content of about 30 percent, in plastic pots with a surface area of 103.2 square centimeters (cm^2). […] The plants were grown for 7-36 days (d) in a greenhouse with an approximate 14-hour (h) photoperiod which was maintained at about 23° C. during the day and 22° C. during the night. Nutrients and water were added on a regular basis and supplemental lighting was provided with overhead metal halide 1000-Watt lamps as necessary. The plants were employed for testing when they reached the second or third true leaf stage.
(§2) An aliquot of formulated benzyl 4-amino-3-chloro-6-(4-chloro-2-fluoro-3-methoxyphenyl)-5-fluoropyridine-2-carboxylate (florpyrauxifen-benzyl; 300 grams active ingredient per liter (g ai/L) suspension concentrate (SC)) was placed in a 25 mL glass vial and diluted in a volume of 1.25% (v/v) aqueous Agri-dex crop oil concentrated to obtain a stock solution. […] The concentrated stock solutions were diluted with an aqueous mixture of 1.25% v/v of aqueous Agri-dex crop oil concentrate to provide the appropriate application rates. Compound requirements are based upon a 12 milliliter (mL) application volume at a rate of 187 liters per hectare (L/ha). Stock solutions of the formulated materials were prepared following the same procedure. Spray solutions of the compound mixtures were prepared by adding the stock solutions to the appropriate amount of dilution solution to form a 12 mL spray solution. Formulated compounds were applied to the plant material with an overhead Mandel track sprayer equipped with 8002E nozzles calibrated to deliver 187 L/ha over an application area of 0.503 square meters (m^2) at a spray height of 18 inches (43 centimeters (cm)) above average plant canopy. Control plants were sprayed in the same manner with the solvent blank.
(§3) The treated plants and control plants were placed in a greenhouse as described above and watered by sub-irrigation to prevent wash-off of the test compounds. After 20-22 d, the condition of the test plants as compared with that of the control plants was determined visually and scored on a scale of 0 to 100 percent where 0 corresponds to no injury and 100 corresponds to complete kill. Colby's equation was used to determine the herbicidal effects expected from the mixtures.
(§4) Benzyl 4-amino-3-chloro-6-(4-chloro-2-fluoro-3-methoxyphenyl)-5-fluoropyridine-2-carboxylate (florpyrauxifen-benzyl, 300 g ai/L SC) was combined in two-, three-, and four-way mixtures with one or more of the following: clopyralid-olamine (as Lontrel™ 35A Herbicidal Concentrate), quinclorac (as Facet 75DF), isoxadifen-ethyl (100 g/L SC), cloquintocet-mexyl (120 g/L EC) or mefenpyr-diethyl (as mefenpyr-diethyl 15WP). The mixtures were applied to kale/Chinese kale (Brassica alboglabra, BRSAG), Juncea canola or brown mustard (Brassica juncea, BRSJU), rutabaga (Brassica napus var. napobrassica, BRSNA), all varieties of canola and oilseed rape (Brassica napus, BRSNN), Nexera™ canola (Brassica napus, BRSNN-NEX), winter oilseed rape (Brassica napus, BRSNW), Roundup Ready® canola (Brassica napus, RR-BRSNN), and turnip or Polish canola (Brassica rapa, BRSRR), and the phytotoxicity of the compositions was measured.
(§5) Colby's equation was used to determine the herbicidal effects expected from the mixtures evaluated in the described trials (Colby, S. R. Calculation of the synergistic and antagonistic response of herbicide combinations. Weeds 1967, 15, 20-22.).
(§6) The following equation was used to calculate the expected activity of mixtures containing two active ingredients, A and B: Expected=A+B−(A×B/100) • A=observed efficacy of active ingredient A at the same concentration as used in the mixture; • B=observed efficacy of active ingredient B at the same concentration as used in the mixture.

[2] = tested on: Brassica napus (Nexera canola, BRSNN-NEX); assay: Greenhouse postemergence application, visual injury after 20-22 d, BRSNN-NEX
Description: as §1, §2, §3, §4, §5, §6

[3] = tested on: Brassica napus var. napobrassica (rutabaga, BRSNA); assay: Greenhouse postemergence application, visual injury after 20-22 d, BRSNA
Description: as §1, §2, §3, §4, §5, §6

[4] = tested on: Brassica napus (all varieties of canola and oilseed rape, BRSNN); assay: Greenhouse postemergence application, visual injury after 20-22 d, BRSNN
Description: as §1, §2, §3, §4, §5, §6

[5] = tested on: Brassica napus (Roundup Ready canola, RR-BRSNN); assay: Greenhouse postemergence application, visual injury after 20-22 d, RR-BRSNN
Description: as §1, §2, §3, §4, §5, §6

[6] = tested on: Brassica napus (winter oilseed rape, BRSNW); assay: Greenhouse postemergence application, visual injury after 20-22 d, BRSNW
Description: as §1, §2, §3, §4, §5, §6

[7] = tested on: Brassica rapa (turnip or Polish canola, BRSRR); assay: Greenhouse postemergence application, visual injury after 20-22 d, BRSRR
Description: as §1, §2, §3, §4, §5, §6

[8] = tested on: Brassica juncea (Juncea canola or brown mustard, BRSJU); assay: Greenhouse postemergence application, visual injury after 20-22 d, BRSJU
Description: as §1, §2, §3, §4, §5, §6

CCOC(=O)C1=NN(c2ccc(Cl)cc2Cl)C(C)(C(=O)OCC)C1 (racemic) [Mefenpyr-diethyl, diethyl (RS)-1-(2,4-dichlorophenyl)-5-methyl-2-pyrazoline-3,5-dicarboxylate]
0%: Obs % visual injury BRSAG ([1]; safener alone 5 g ai/ha) | Obs % visual injury BRSAG ([1]; safener alone 10 g ai/ha) | Obs % visual injury BRSAG ([1]; safener alone 20 g ai/ha) | Obs % visual injury BRSAG ([1]; safener alone 40 g ai/ha) | Obs % visual injury BRSNN-NEX ([2]; safener alone 5 g ai/ha) | Obs % visual injury BRSNN-NEX ([2]; safener alone 10 g ai/ha) | Obs % visual injury BRSNN-NEX ([2]; safener alone 20 g ai/ha) | Obs % visual injury BRSNN-NEX ([2]; safener alone 40 g ai/ha) | Obs % visual injury BRSNA ([3]; safener alone 5 g ai/ha) | Obs % visual injury BRSNA ([3]; safener alone 10 g ai/ha) | Obs % visual injury BRSNA ([3]; safener alone 20 g ai/ha) | Obs % visual injury BRSNA ([3]; safener alone 40 g ai/ha) | Obs % visual injury BRSNN ([4]; safener alone 5 g ai/ha) | Obs % visual injury BRSNN ([4]; safener alone 10 g ai/ha) | Obs % visual injury BRSNN ([4]; safener alone 20 g ai/ha) | Obs % visual injury BRSNN ([4]; safener alone 40 g ai/ha) | Obs % visual injury RR-BRSNN ([5]; safener alone 5 g ai/ha) | Obs % visual injury RR-BRSNN ([5]; safener alone 10 g ai/ha) | Obs % visual injury RR-BRSNN ([5]; safener alone 20 g ai/ha) | Obs % visual injury RR-BRSNN ([5]; safener alone 40 g ai/ha) | Obs % visual injury BRSNW ([6]; safener alone 5 g ai/ha) | Obs % visual injury BRSNW ([6]; safener alone 10 g ai/ha) | Obs % visual injury BRSNW ([6]; safener alone 20 g ai/ha) | Obs % visual injury BRSNW ([6]; safener alone 40 g ai/ha) | Obs % visual injury BRSRR ([7]; safener alone 5 g ai/ha) | Obs % visual injury BRSRR ([7]; safener alone 10 g ai/ha) | Obs % visual injury BRSRR ([7]; safener alone 20 g ai/ha) | Obs % visual injury BRSRR ([7]; safener alone 40 g ai/ha) | Obs % visual injury BRSJU ([8]; safener alone 5 g ai/ha) | Obs % visual injury BRSJU ([8]; safener alone 10 g ai/ha) | Obs % visual injury BRSJU ([8]; safener alone 20 g ai/ha) | Obs % visual injury BRSJU ([8]; safener alone 40 g ai/ha)
